For assay [1], the system named is beta amyloid (Aβ) production in N2a/APP cells. The assay is described as follows: Inhibition of beta amyloid Aβ(1-42) production in nerve cells, immunoassay. It is filed as cell-based. As to conditions: read-out: Aβ Inhibition Rate (%). As for the experimental part: N2a/APP cells, used as a study model for neurodegenerative diseases (Wang X C, Zhang Y C, Chatterjie N, Grundke-Iqbal I, Iqbal K, Wang J Z. Neurochem Res (2008) 33:1138-1144), were employed to analyze the inhibition of beta amyloid (Aβ) production in nerve cells. N2a/APP cells were fixed onto 24-well plates (5×10^4 cells/well) containing a medium devoid of hygromycin B. The ingredients listed in Table 5 were added at a final concentration of 10 μg/mL to each well and incubated for 48 hrs. Secreted Aβ(1-42) was quantitatively analyzed with an Aβ(1-42) immunoassay kit (Biosource, Camarillo, Calif., USA). In this regard, the medium in each well was transferred into 96-well plates coated with an Aβ(1-42) antibody and then treated with a detection antibody. For this, after incubation at room temperature for 3 hrs, the medium was treated with HRP (horseradish peroxidase), an anti-rabbit antibody and stabilized chromogen to allow an antigen-antibody reaction. This reaction was terminated with a stop buffer before absorbance was read at 450 nm. For a negative control, no samples were added to the medium. Inhibitory effects on beta amyloid production were calculated according to the following equation and the results are summarized in Table 5, below.
Aβ Inhibition (%)=(C−S)/C×100
(§1) where C is the absorbance of a negative control and S is the absorbance of each sample.

The subject of another assay is N2a/APP cells. The assay is described as follows: Reduction of neurotoxicity, MTT cell viability assay. It is filed as cell-based. The conditions noted are these: 10 μg/mL, 12 hrs. As for the experimental part:
For this, N2a/APP cells were subjected to an MTT assay, which is a measure of mitochondrial activity that converts 3-(4,5-dimethyl-thiazol-2-yl)-2,5-diphenyl-tetrazolium bromide (MTT) to formazan in living cells. N2a/APP cells were seeded at a density of 1×10^4 cells/well into 96-well plates, incubated for 24 hrs, and left for 12 hrs in serum-free DMEM-Opti-MEM. Thereafter, the samples listed in Table 5 were added at a final concentration of 10 μg/mL to each well (medium free of any of the samples was used for a negative control) and then incubated for 12 hrs. To each well was added approx. 10 μL of MTT (5 mg/ml in phosphate buffered saline (PBS) solution), followed by incubation at 37° C. for 4 hrs. Each well was measured for absorbance at 570 nm. Inhibitory activity against neurotoxicity was assessed by an increase rate of cell viability as calculated by the following equation.
Increase Rate of Cell Viability (%)=(S−C)/C×100
as §1
Background: Tetrazolium assays rely on reduction of a dye to a coloured formazan, in cell work by metabolically active cells.

A further assay addresses T1, human recombinant BACE1 (Homo sapiens, UniProt P56817).
T1 construct: purchased PanVera, Wis., USA
The assay is described as follows: β-secretase inhibition, human recombinant BACE1 assay kit (PanVera), fluorescence. It is filed as biochemical. As to conditions: for inhibition at 0.01 µM: read-out: BACE Inhibition at 10 nM; for pIC50: β-secretase (BACE). As to the method: The primary 1,3,5-trihydroxybenzene polymer products obtained under the various conditions were assayed for inhibitory activity against β-secretase. For this purpose, a human recombinant BACE1 assay kit (PanVera, Wis., USA) was used according to the manufacturer's instructions.
For a negative control, an assay buffer containing none of the samples was used instead of the sample solution. In the absence of light, each reaction mixture was allowed to react at 25° C. for 60 min. Thereafter, while a light beam at 528 nm was applied to the reaction mixture, fluorescent light at 620 nm was detected with Bio-Tek Microplate fluorescence reader FLx 800 (VT, USA). Inhibition activity was calculated according to the following formula:
Inhibition (%)=[1−{(S−S0)/(C−C0)}]×100
C is a fluorescent intensity after reaction of the negative control for 60 min,
C0 is an initial fluorescent intensity of the negative control,
S is a fluorescent intensity after reaction of each sample for 60 min, and
S0 is an initial fluorescent intensity of each sample.

Where [2] appears, read: N2a/APP cells, 10 μg/mL, 48 hrs, secreted Aβ(1-42).

Structures are written as SMILES. pIC50: −log10 of the molar value. Like-named read-outs stand apart in the source and are kept apart here.

T1 sequence (P56817 46-501): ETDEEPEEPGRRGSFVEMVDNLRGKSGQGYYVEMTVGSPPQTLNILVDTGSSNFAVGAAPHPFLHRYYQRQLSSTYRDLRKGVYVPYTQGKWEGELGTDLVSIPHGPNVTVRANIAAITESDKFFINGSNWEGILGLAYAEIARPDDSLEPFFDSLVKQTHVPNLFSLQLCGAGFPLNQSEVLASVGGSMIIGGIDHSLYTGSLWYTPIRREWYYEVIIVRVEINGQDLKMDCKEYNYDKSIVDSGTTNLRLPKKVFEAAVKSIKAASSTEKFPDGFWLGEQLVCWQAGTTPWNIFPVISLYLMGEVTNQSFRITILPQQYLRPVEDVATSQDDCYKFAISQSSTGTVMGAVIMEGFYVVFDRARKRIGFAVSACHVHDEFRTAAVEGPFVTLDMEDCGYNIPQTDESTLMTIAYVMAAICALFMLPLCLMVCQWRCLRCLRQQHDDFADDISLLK

Consider `C[C@H](NC(=O)Cc1cc(F)cc(F)c1)C(=O)N[C@@H]1C(=O)N(C)c2ccccc2-c2ccccc21` [C. Ex. 2, (S)-2-[2-(3,5-Difluoro-phenyl)-acetylamino]-N-((S)-5-methyl-6-oxo-6,7-dihydro-5H-dibenzo[b,d]azepin-7-yl)-propionamide], for which the inhibition (commonly the change of the read-out against control, counted positive when it falls) at 10 µg/mL in assay [1] (setting [2]) was 21%. Besides, the “Increase Rate of Cell Viability (%)” value in the assay on N2a/APP cells turned out to be 5%.
Turning to `C[C@H](NC(=O)Cc1cc(F)cc(F)c1)C(=O)N[C@H]1N=C(c2ccccc2)c2ccccc2N(C)C1=O` [C. Ex. 3, (S)-2-[2-(3,5-Difluoro-phenyl)-acetylamino]-N-((S)-1-methyl-2-oxo-5-phenyl-2,3-dihydro-1H-benzo[e][1,4]diazepin-3-yl)-propionamide], the inhibition at 10 µg/mL in assay [1] (48 h) was 22%. In the assay on N2a/APP cells, the “Increase Rate of Cell Viability (%)” value is on record as −5%.
As to `CC(C)Cc1ccc(C(C)C(=O)O)cc1` (centres unmarked) [C. Ex. 4, ibuprofen], in assay [1] (setting [2]), the inhibition at 10 µg/mL was found to be 17%. The “Increase Rate of Cell Viability (%)” value with N2a/APP cells amounted to 2%.
For `Cc1ccc(-c2cc(C(F)(F)F)nn2-c2ccc(S(N)(=O)=O)cc2)cc1` [C. Ex. 5, celecoxib], in that order: 19% and 15%.
In the case of `O=c1c(O)c(-c2ccc(O)c(O)c2)oc2cc(O)cc(O)c12` [C. Ex. 6, quercetin], the inhibition at 10 µg/mL in assay [1] (48 h) was determined as 17%. In addition, in the assay on N2a/APP cells, the “Increase Rate of Cell Viability (%)” value was 12%.
For `Oc1ccc(C=Cc2cc(O)cc(O)c2)cc1` [C. Ex. 7, resveratrol], in that order: 13% and 10%.
Take `Oc1cc(O)c2c(c1)Oc1c(O)cc3oc4cc(O)cc(O)c4c3c1O2` [Chemical Formula 3-1]: at human recombinant BACE1, the inhibition at 0.01 µM worked out at 53% and the negative-log IC50 (pIC50) (in general, −log10 of the IC50, conventionally taken in molar units) was 8.24.
For `Oc1cc(O)cc(Oc2c(O)cc(O)c3c2oc2cc(O)c4c(c23)Oc2c(O)cc(O)cc2O4)c1` [Chemical Formula 3-2], in that order: 87% and 8.77.
Turning to `Oc1cc(O)cc(Oc2c(O)cc(O)c3c2Oc2c(O)cc4oc5cc(O)cc(O)c5c4c2O3)c1` [Chemical Formula 3-4], at human recombinant BACE1, the inhibition at 0.01 µM amounted to 90% and the pIC50 was 8.82.
`Oc1cc(O)cc(Oc2c(O)cc3c(c2O)Oc2c(c(O)cc4oc5c(Oc6cc(O)cc(O)c6)c(O)cc(O)c5c24)O3)c1` [Chemical Formula 3-6]: the inhibition at 10 µg/mL in assay [1] (setting [2]) is 30%. The “Increase Rate of Cell Viability (%)” value in the assay on N2a/APP cells stood at 22%. In addition, on human recombinant BACE1, the inhibition at 0.01 µM is 94% and the pIC50 was 8.89.
Regarding `Oc1cc(O)c2c(c1)Oc1c(cc3oc4cc(O)cc(O)c4c3c1O)O2` [Chemical Formula 4-1], at human recombinant BACE1, the inhibition at 0.01 µM was determined as 65% and the negative-log IC50 (pIC50) was 8.33.
For `Oc1cc(O)cc(Oc2c(O)cc(O)c3c2oc2cc4c(c(O)c23)Oc2cc(O)cc(O)c2O4)c1` [Chemical Formula 4-2], in that order: 77% and 8.44.
Consider `Oc1cc(O)cc(Oc2c(O)cc(O)c3c2Oc2c(cc4oc5cc(O)cc(O)c5c4c2O)O3)c1` [Chemical Formula 4-3], for which, on human recombinant BACE1, the inhibition at 0.01 µM stood at 70% and the pIC50 is 8.40.
Turning to `Oc1cc(O)cc(Oc2c(O)cc(O)c3c2Oc2c(cc4oc5c(Oc6cc(O)cc(O)c6)c(O)cc(O)c5c4c2O)O3)c1` [Chemical Formula 4-4], the inhibition at 10 µg/mL in assay [1] (setting [2]) is 27%. For the same compound, in the assay on N2a/APP cells, the “Increase Rate of Cell Viability (%)” value was found to be 21%. At human recombinant BACE1, the inhibition at 0.01 µM turned out to be 86% and the pIC50 was 8.62.

Values taken from patent US20120122822A1, “COMPOSITIONS FOR REDUCING BETA-AMYLOID-INDUCED NEUROTOXICITY COMPRISING BETA-SECRETASE INHIBITOR” (Phloronol, Inc., priority 2010, published 2012).
